Results: US10195185B2, “3-(1H-imidazo[4,5-C]pyridin-2-yl)-1H-pyrazolo[4,3-B]pyridines and therapeutic uses thereof” (Samumed, LLC, priority 2015, dated 2019)

Experiments:
[1] = system: primary human mesenchymal stem cells (hMSCs); test: Induction of chondrogenesis in hMSCs (nodule area, Rhodamine B / Nile Red); format: cell-based; details: TGF-β3 as positive control; for Emax: read-out: Max. Activity as % TGF-β3 activity; for EC50: concentration required to induce 50% levels of chondrogenesis, read-out: Conc (nM) of 50% TGF-β3 activity
Protocol: Representative compounds were screened using primary human mesenchymal stem cells (hMSCs) to determine their ability to induce chondrogenesis (process by which cartilage is developed).
Primary human mesenchymal stem cells (hMSCs) were purchased from Lonza (Walkersville, Md.) and expanded in Mesenchymal Stem Cell Growth Media (Lonza). Cells between passage 3 and 6 were used for the experiments.
Each compound was dissolved in DMSO as a 10 mM stock and used to prepare compound source plates. For the 96 well assay, serial dilution (1:3, 6-point dose-response curves from 2700 nM to 10 nM) and compound transfer was performed using the ECHO 550 (Labcyte, Sunnyvale, Calif.) into 96-well clear bottom assay plates (Greiner Bio-One) with appropriate DMSO backfill for a final DMSO concentration of 0.03%. hMSCs were plated at 20,000 cells/well in 250 μL/well Incomplete Chondrogenic Induction Medium (Lonza; DMEM, dexamethasone, ascorbate, insulin-transferrin-selenium [ITS supplement], gentamycin-amphotericin [GA-1000], sodium pyruvate, proline and L-glutamine). TGF-β3 (10 ng/mL) was used as a positive control for differentiation while negative control wells were treated with 75 nL DMSO for normalization and calculating EC50 values. For the 384 well assay, serial dilution (1:3, 8-point dose-response curves from 5000 nM to 2.2 nM) and compound transfer was performed using the ECHO 550 (Labcyte, Sunnyvale, Calif.) into 384-well clear bottom assay plates (Greiner Bio-One) with appropriate DMSO backfill for a final DMSO concentration of 0.03%. hMSCs were plated at 8,000 cells/well in 80 μL/well Incomplete Chondrogenic Induction Medium (Lonza; DMEM, dexamethasone, ascorbate, insulin-transferrin-selenium [ITS supplement], gentamycin-amphotericin [GA-1000], sodium pyruvate, proline and L-glutamine). TGF-β3 (10 ng/mL) was used as a positive control for differentiation while negative control wells were treated with 25 nL DMSO for normalization and calculating EC50 values. Cells were incubated at 37° C. and 5% CO2 for 6 days. To image chondrogenic nodules, the cells were fixed using 4% formaldehyde (Electron Microscopy Sciences), and stained with 2 μg/mL Rhodamine B (Sigma-Aldrich) and 20 μM Nile Red (Sigma-Aldrich) [Johnson K., et. al, A Stem Cell-Based Approach to Cartilage Repair, Science, (2012), 336(6082), 717-721]. The nodules imaged (25 images per well for 96 well plates and 9 images per well for 384 well plates at 10× magnification) by excitation at 531 nm and emission at 625 nm and quantified using the CellInsight CX5 (Thermo Scientific). Area of nodules in each well was normalized to the average of 3 DMSO treated wells on the same plate using Excel (Microsoft Inc.). The normalized averages (fold change over DMSO) of 2 or 3 replicate wells for each compound concentration were calculated. Due to solubility limitations of some of the compounds, curve fitting was incomplete leading to inaccurate EC50 determinations.
Using TGF-β3 as a positive control, the concentration of representative compounds required to induce 50% levels of chondrogenesis is reported. In addition, the maximum activity of each compound and the respective dose that each compound reached maximum chondrogenesis activity is reported.

[2] = system: IL-6 in human monocyte cell line (THP-1 cells); test: IL-6 inhibition in LPS-stimulated THP-1 cells (HTRF); format: cell-based; details: IL-6 in LPS-stimulated THP-1 cells; for EC50: HTRF; for inhibition at 10 µM: read-out: percent inhibition in brackets beside EC50 >10 μM
Outline: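 THP-1 cells, serum-reduced (1% FBS) for 24 h, were preincubated with compound (10-point 1:3 series from 10 μM, 0.1% DMSO) for 2 h, then stimulated with 500 ng/mL LPS for 22 h at 37° C. IL-6 was read by HTRF (665/620 nm ratio) and normalized to DMSO. EC50 from four-parameter fit; % inhibition at 10 μM given if EC50 >10 μM.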

| SMILES | Emax [1] [%] | EC50 [1] [nM] | EC50 [2] [µM] | inhibition at 10 µM [2] [%] |
| --- | --- | --- | --- | --- |
| O=C(Cc1ccccc1)Nc1cncc(-c2ccc3[nH]nc(-c4nc5c(-c6ccncc6)nccc5[nH]4)c3n2)c1 [Compound 122, 2-phenyl-N-(5-(3-(4-(pyridin-4-yl)-1H-imidazo[4,5-c]pyridin-2-yl)-1H-pyrazolo[4,3-b]pyridin-5-yl)pyridin-3-yl)acetamide] | 74 | 30 | 1.24 |  |
| CN(C)c1cncc(-c2ccc3[nH]nc(-c4nc5c(N6CCCCC6)nccc5[nH]4)c3n2)c1 [Compound 175, N,N-Dimethyl-5-(3-(4-(piperidin-1-yl)-1H-imidazo[4,5-c]pyridin-2-yl)-1H-pyrazolo [4,3-b]pyridin-5-yl)pyridin-3-amine] | 48 |  | > 10 | 0 |
| Nc1cncc(-c2ccc3[nH]nc(-c4nc5c(-c6ccccc6F)nccc5[nH]4)c3n2)c1 [Compound 59, 5-(3-(4-(2-Fluorophenyl)-1H-imidazo[4,5-c]pyridin-2-yl)-1H-pyrazolo[4,3-b]pyridin-5-yl)pyridin-3-amine] | 108 | 10 | > 10 | 30.6 |
| CC(C)C(=O)Nc1cncc(-c2ccc3[nH]nc(-c4nc5c(-c6ccccc6F)nccc5[nH]4)c3n2)c1 [Compound 65, N-(5-(3-(4-(2-fluorophenyl)-1H-imidazo[4,5-c]pyridin-2-yl)-1H-pyrazolo [4,3-b]pyridin-5-yl)pyridin-3-yl)isobutyramide] | 140 | 10 | > 10 | 40.4 |
| CCCC(=O)Nc1cncc(-c2ccc3[nH]nc(-c4nc5c(-c6ccsc6)nccc5[nH]4)c3n2)c1 [Compound 297, N-(5-(3-(4-(Thiophen-3-yl)-1H-imidazo[4,5-c]pyridin-2-yl)-1H-pyrazolo [4,3-b]pyridin-5-yl)pyridin-3-yl)butyramide] | 358 | 7 | 3.67 |  |
| CC(C)C(=O)Nc1cncc(-c2ccc3[nH]nc(-c4nc5c(-c6cccnc6)nccc5[nH]4)c3n2)c1 [Compound 93, N-(5-(3-(4-(Pyridin-3-yl)-1H-imidazo[4,5-c]pyridin-2-yl)-1H-pyrazolo[4,3-b]pyridin-5-yl)pyridin-3-yl)isobutyramide] | 32 |  | > 10 | 25.1 |
| NC1CN(c2cncc(-c3ccc4[nH]nc(-c5nc6c(-c7ccc(Cl)s7)nccc6[nH]5)c4n3)n2)C1 [Compound 1068, 1-(6-(3-(4-(5-Chlorothiophen-2-yl)-1H-imidazo[4,5-c]pyridin-2-yl)-1H-pyrazolo[4,3-b]pyridin-5-yl)pyrazin-2-yl)azetidin-3-amine] |  |  | > 10 | 19.2 |
| O=C(Nc1cncc(-c2ccc3[nH]nc(-c4nc5c(-c6ccccn6)nccc5[nH]4)c3n2)c1)c1ccccc1 [Compound 151, N-(5-(3-(4-(Pyridin-2-yl)-1H-imidazo[4,5-c]pyridin-2-yl)-1H-pyrazolo[4,3-b]pyridin-5-yl)pyridin-3-yl)benzamide] |  |  | > 10 | 28.9 |
| COc1cncc(-c2ccc3[nH]nc(-c4nc5c(-c6ccoc6)nccc5[nH]4)c3n2)c1 [Compound 692, 3-(4-(Furan-3-yl)-1H-imidazo[4,5-c]pyridin-2-yl)-5-(5-methoxypyridin-3-yl)-1H-pyrazolo[4,3-b]pyridine] |  |  | > 10 | 44 |
| CS(=O)(=O)NCc1cc(F)cc(-c2nccc3[nH]c(-c4n[nH]c5ccc(-c6cncc(NC(=O)CC7CCNCC7)c6)nc45)nc23)c1 [Compound 769, N-(5-(3-(4-(3-Fluoro-5-(methylsulfonamidomethyl)phenyl)-1H-imidazo[4,5-c]pyridin-2-yl)-1H-pyrazolo[4,3-b]pyridin-5-yl)pyridin-3-yl)-2-(piperidin-4-yl)acetamide] |  |  | > 10 | 33.4 |
| CN(C)CCNc1cc(F)cc(-c2nccc3[nH]c(-c4n[nH]c5ccc(-c6cncc(OCCN7CCCC7)c6)nc45)nc23)c1 [Compound 786, N^1-(3-Fluoro-5-(2-(5-(5-(2-(pyrrolidin-1-yl)ethoxy)pyridin-3-yl)-1H-pyrazolo[4,3-b]pyridin-3-yl)-1H-imidazo[4,5-c]pyridin-4-yl)-5phenyl)-N^2,N^2-dimethylethane-1,2-diamine] |  |  | 7.22 |  |
| c1ccc(CNCc2cncc(-c3ccc4[nH]nc(-c5nc6c(-c7ccsc7)nccc6[nH]5)c4n3)c2)cc1 [Compound 304, N-Benzyl-1-(5-(3-(4-(thiophen-3-yl)-1H-imidazo[4,5-c]pyridin-2-yl)-1H-pyrazolo [4,3-b]pyridin-5-yl)pyridin-3-yl)methanamine] |  |  | > 10 | 0 |
| CN1CCN(c2nccc3[nH]c(-c4n[nH]c5ccc(-c6cnccn6)nc45)nc23)CC1 [Compound 648, 3-(4-(4-Methylpiperazin-1-yl)-1H-imidazo[4,5-c]pyridin-2-yl)-5-(pyrazin-2-yl)-1H-pyrazolo[4,3-b]pyridine] |  |  | 0.998 |  |
| Cc1ncc(-c2ccc3[nH]nc(-c4nc5c(-c6ccoc6)nccc5[nH]4)c3n2)n1C [Compound 685, 5-(1,2-Dimethyl-1H-imidazol-5-yl)-3-(4-(furan-3-yl)-1H-imidazo[4,5-c]pyridin-2-yl)-1H-pyrazolo[4,3-b]pyridine] |  |  | > 10 | 30.2 |
| c1cc2[nH]c(-c3n[nH]c4ccc(-c5cncc(OC6CCNCC6)c5)nc34)nc2cn1 [Compound 656, 3-(1H-Imidazo[4,5-c]pyridin-2-yl)-5-(5-(piperidin-4-yloxy)pyridin-3-yl)-1H-pyrazolo[4,3-b]pyridine] |  |  | > 10 | 41.3 |
| Cn1cc(-c2ccc3[nH]nc(-c4nc5c(-c6ccc7c(c6)OCO7)nccc5[nH]4)c3n2)c(CO)n1 [Compound 1151, (4-(3-(4-(Benzo[d][1,3]dioxol-5-yl)-1H-imidazo[4,5-c]pyridin-2-yl)-1H-pyrazolo [4,3-b]pyridin-5-yl)-1-methyl-1H-pyrazol-3-yl)methanol] |  |  | > 10 | 0 |
| O=C(Nc1cncc(-c2ccc3[nH]nc(-c4nc5c(-c6ccncc6)nccc5[nH]4)c3n2)c1)C1CCCCC1 [Compound 135, N-(5-(3-(4-(pyridin-4-yl)-1H-imidazo[4,5-c]pyridin-2-yl)-1H-pyrazolo[4,3-b]pyridin-5-yl)pyridin-3-yl)cyclohexanecarboxamide] |  |  | > 10 | 33.2 |
| Cn1cc(-c2ccc3[nH]nc(-c4nc5c(N6CCCCC6)nccc5[nH]4)c3n2)c(CO)n1 [Compound 1133, (1-Methyl-4-(3-(4-(piperidin-1-yl)-1H-imidazo[4,5-c]pyridin-2-yl)-1H-pyrazolo [4,3-b]pyridin-5-yl)-1H-pyrazol-3-yl)methanol] |  |  | > 10 | 0 |
| COc1cccc(-c2nccc3[nH]c(-c4n[nH]c5ccc(-c6cncc(OC7CCNCC7)c6)nc45)nc23)c1 [Compound 1025, 3-(4-(3-Methoxyphenyl)-1H-imidazo[4,5-c]pyridin-2-yl)-5-(5-(piperidin-4-yloxy)pyridin-3-yl)-1H-pyrazolo[4,3-b]pyridine] |  |  | > 10 | 26.9 |
| CC(C)(C)CC(=O)Nc1cncc(-c2ccc3[nH]nc(-c4nc5c(-c6ccccc6F)nccc5[nH]4)c3n2)c1 [Compound 72, N-(5-(3-(4-(2-fluorophenyl)-1H-imidazo[4,5-c]pyridin-2-yl)-1H-pyrazolo [4,3-b]pyridin-5-yl)pyridin-3-yl)-3,3-dimethylbutanamide] |  |  | > 10 | 26.1 |
